Test results taken from article PMC12455572, “Amphipathic Proline-Rich Cell Penetrating Peptides for Targeting Mitochondria” (ACS Chemical Biology, 2025).
“Also recorded” adds a separate entry of the source. One block for each substance: values may come before it.

Tests used:
MCF-7 cells [1] = test: Confocal microscopy of live cells: cellular uptake and intracellular localization; type: cell-based; settings: live MCF-7 cells, 1 h, 37 °C, DMEM + 1% FBS
Method: MitoTracker Deep Red was used as a counter stain for mitochondria and Hoechst 33342 for the nucleus. […] To explore whether PPII-helicity is key for mitochondrial localization, we prepared peptide CF-Ahx-(ChaRR)3-NH2 with Arg instead of Gup residues. This control peptide features a flexible conformation as judged by CD spectroscopy (Figure S1B). […] These findings show the importance of the secondary structure of the CPP for subcellular organelle localization.
MCF-7 cells were seeded in a 8-μwell Ibidi plate at 25′000 cells/well in DMEM (100 μL, 10% FCS) and allowed to adhere overnight. The medium was removed, the cells were washed with PBS (200 μL, 1x) and incubated with the peptide solution at 20 μM, 10 μM, 5 μM or 2.5 μM in DMEM (200 μL, 1% FCS) for 1 h at 37 °C. The medium was removed, and the cells were washed with PBS (200 μL, 2x). MitoTracker Deep Red was distributed at 20 nM in DMEM (200 μL, 1% FBS) and the cells were incubated at 37 °C for 25 min. The medium was removed, and the cells were washed with PBS (200 μL, 2x). Hoechst333342 was distributed at 2 μM in DMEM (200 μL, 1% FBS) and the cells were incubated at 37 °C for 5 min. The cells were washed with PBS (200 μL, 2x), and FluoroBrite medium (200 μL) was added. The live cells were monitored on the confocal microscope at 37 °C, 5% CO2.
For the cells subjected to a 24 h rest period, the FluoroBrite medium was exchanged for DMEM (200 μL, 10% FBS) after the initial imaging, and the cells were kept in this medium for 24 h. The culture medium was then exchanged for FluoroBrite DMEM, and the cells were imaged again.
Fluorescence images of cells were collected using a Nikon Eclipse T1 (inverse) microscope equipped with a Yokogawa Confocal Scanner Unit CSU-W1-T2, containing a spinning disk (50 µm). The microscope is equipped with two EMCCD Andor iXon Ultra cameras. Emission in the blue channel (405 nm) was filtered with a 450/50 bandpass filter, emission in the green channel (488 nm) was filtered with a 525/50 bandpass, and the emission in the red channel (641 nm) was filtered with a 708/75 bandpass filter. Fluorescence images were obtained using an oil-immersion objective with a magnification of 100 × 1.4 CFI Plan Apo Oil.
Each experiment was repeated at least three times. The images acquired were adjusted using ImageJ2 software. Correlation coefficients were determined on entire images using JaCOP plugin.1 […]
MCF-7 cells were seeded in a 8-µwell Ibidi plate at 25’000 cells/well in DMEM (100 µL, 10% FCS) and allowed to adhere overnight. The medium was removed. The cells were washed with PBS (200 µL, 1x) and incubated with the peptide solution at 20 µM, 10 µM, 5 µM, or 2.5 µM in DMEM (200 µL, 1% FCS) for 1 h at 37 °C. The medium was removed, and the cells were washed with PBS (200 µL, 2x).
For imaging of mitochondria, MitoTracker Deep Red was added as described in the manuscript. For imaging of endosomes/lysosomes, Ly s o Tr a c k e r Deep Red was added (200 µL, 20 nM in DMEM, 1% FBS) followed by incubation of the cells at 37 °C for 25 min. The medium was removed, and the cells were washed with PBS (200 µL, 2x). For imaging of the nucleus, Hoechst333342 was added at (200 µL, 2 µM in DMEM, 1% FBS) followed by incubation of the cells at 37 °C for 5 min. The cells were washed with PBS (200 µL, 2x), and FluoroBrite medium (200 µL) was added. The live cells were monitored on the confocal microscope […]
MCF-7 cells were seeded in a 96-well plate at 7’500 cells/well in cell culture medium (200 µL, 10% FCS), and allowed to adhere overnight. The medium was removed, the cells were washed with PBS (100 µL, 1x) and incubated with the peptide solution at 20 µM, 10 µM, 5 µM, or 2.5 µM in DMEM (200 µL, 1% FCS) for 1 h at 37 °C. The medium was removed, and the cells were washed with PBS (100 µL, 1x). The MTT solution in DMEM (110 µL, 1.2 mM, 1% FBS) was added. The cells were incubated for 3 h at 37 °C. The […]

MCF-7 cells [2] = test: Flow cytometry (FACS): overall cellular uptake; type: cell-based; settings: MCF-7, 1 h, 37 °C, Figure S1D
Method: MCF-7 cells were seeded in a 24-well plate at 150′000 cells/well in DMEM (1 mL, 10% FCS), and allowed to adhere overnight. The medium was removed, the cells were washed with PBS (250 μL, 1x) and incubated with the peptide solution at 20 μM, 10 μM, 5 μM or 2.5 μM in medium (200 μL, 1% FCS) for 1 h at 37 °C. The medium was removed, and the cells were washed with PBS (250 μL, 2x). Trypsin (100 μL, 0.05%) was added, and the cells were incubated at 37 °C for 5 min. D-PBS with Mg^2+ and Ca^2+ (300 μL, 4 °C) was added, the cells were resuspended and centrifuged for 5 min at 0.4 rcf. The supernatant was carefully removed, and the cells were resuspended in a solution of PBS containing 1.5 μM PI and 2 mM EDTA (400 μL at 4 °C). The cells were added to FACS tubes and kept on ice prior to analysis. Each sample contained 10′000 cells and was analyzed in triplicate. Each experiment was repeated three times.
For the experiments that included the 24 h rest period, the peptides were incubated as described above. After the 1 h incubation time, the cells were washed with PBS (250 μL, 2x), DMEM (250 μL, 10% FBS) was added, and the cells were kept at 37 °C, 5% CO2 for 24 h. For a direct comparison of the effect of a 24 h rest period, another set of peptides was incubated with the cells for 1 h. Then, cells of both sets of experiments (1 h followed by the 24 h rest period versus 1 h incubation) were washed with PBS, treated with trypsin, and prepared for FACS analysis as described above. Each sample was run in triplicate and was repeated three times. […]
MCF-7 cells were obtained from the American Type Culture Collection (ATCC).
The cells were grown in a humidified 5% CO2 atmosphere at 37 °C Dulbecco’s Modified Eagle’s Medium (DMEM), high glucose, GlutaMAXTM (4 mM) supplemented with L-glutamine (4 mM), gentamicin (10 mg/L), […]
Fluorescence-Activated Cell Sorting (FACS) analyzer
On a BD LSRFortessa flow cytometer, CF was excited at 488 nm and monitored with 530/30 bandpass, PI was excited at 561 nm and monitored with a 610/20 bandpass. Mean fluorescence values were determined from the histograms using FlowJo 10.0.6 software while dead cells were removed according to PI staining.
Below is an example, CF-Ahx-(ChaZZ)3, of gating, set on untreated cells and propagated to all samples.
Each sample was run in triplicate, and each experiment was repeated at least three times.
(1 picture or pasted object on this page, not shown here)

[3] = RP-HPLC retention time as estimate of hydrophobicity (C4 column, 30 to 55% B); type: physicochemical; settings: RP-HPLC used as estimate of hydrophobicity, A H2O/MeCN/TFA (1000/10/1), gradient 30 to 55% B, 20 min, CF-Ahx-labelled peptides
Method: 2 (A) General structure of amphipathic peptides, CF-Ahx-[XZZ]3-NH2; CF = 5(6)-Carboxyfluorescein, Ahx = aminohexanoic acid. (B) CD spectra of the peptides, recorded at 50 μM in H2O, pH 5.7. For a comparison with a spectrum of a Gup oligomer, see Figure S2. (C) Retention time of the peptides measured by RP-HPLC on a C4 column with a mobile phase from 30 to 55% of MeCN in H2O/MeCN/TFA (1000/10/1). (D) Representative confocal microscopic images of live MCF-7 cells, incubated for 1 h at 37 °C with peptide solutions at a concentration of 10 μM in DMEM + 1% FBS (left, in green). Mitochondria were stained with Deep Red MitoTracker (middle, in red) and merged images (right, orange/yellow indicating colocalization) with Hoechst33342 stain (blue) for the nucleus. TEXT PRINTED IN THE PICTURE: (C) (ValZZ)3: tr(min): 1.8 | (C) (PheZZ)3: tr(min): 2.9 | (C) (TrpZZ)3: tr(min): 3.2 | (C) (ChaZZ)3: tr(min): 5.4 DOUBTS OF THE COPYIST ABOUT THIS PICTURE: Panel C, column head: the small lowered letter after t is read as r (tr), not certain
The Gup residues should preorganize the peptides into a PPII helix with one hydrophobic and two cationic edges along the PPII helical peptide. Indeed, circular dichroism (CD) spectra of the peptides display the characteristic minimum and maximum at ∼206 nm and ∼224 nm, respectively, of a PPII helix (Figure B). The spectra imply that the non-proline residues in every third position are tolerated within the helical structure. We used reverse phase high performance liquid chromatography (RP-HPLC) for an estimate of the hydrophobicity of the peptides. On a C4 column using two mobile phases A (H2O/MeCN/TFA (1000/10/1)) and B (MeCN) with a gradient of 30% to 55% B, all peptides eluted over 20 min but with different retention times (Figure C). The Cha-containing peptide had the longest retention time, indicating the highest hydrophobicity within the series, followed by the Trp-, Phe-, and Val-peptides.

[4] = earlier work of the authors' group; ref number not given; cited from earlier work
Description: Octa-Gup adopts a polyproline II (PPII) helix in which every third amino acid is aligned (Figure E, center). As a result, the charges are organized along the three edges of the helix. […] In contrast, more flexible analogs–octaarginine and an oligoproline with spacers between the proline backbone and the guanidinium group–are trapped in endo ...

[5] = 10 μM peptide, MitoTracker Deep Red and Hoechst 33342 counterstain

Substance: CF-Ahx-(ChaRR)3-NH2
Cellular uptake and intracellular localization (confocal microscopy) (MCF-7 cells [1]; 5 μM peptide): low uptake
Cellular uptake and intracellular localization (confocal microscopy) (MCF-7 cells [1]; [5]): excluded from mitochondria
Cellular uptake and intracellular localization (confocal microscopy) (MCF-7 cells [1]; 10 μM peptide, MitoTracker Deep Red and Hoechst 33342 counterstain, listed as CF-Ahx-(ChaRR)3-NH2): high uptake into the cytoplasm and the nucleus, but little to no uptake into mitochondria
Cellular uptake compared to (ChaZZ)3 (FACS) (MCF-7 cells [2]): enhanced cellular uptake

Retention time tr [3]: 4.9 min
Substance: CF-Ahx-(ChaZZ)2-NH2
Cellular uptake and intracellular localization (confocal microscopy) (MCF-7 cells [1]; 20 μM peptide): did not penetrate into the cells; also recorded: intracellular fluorescence was not detected

Substance: CF-Ahx-VZZVZZVZZ [(ValZZ)3, 9-mer CF-Ahx-(XZZ)3-NH2 with X = valine, Z = Gup]
Cellular uptake and intracellular localization (confocal microscopy) (MCF-7 cells [1]; [5]): little cellular uptake
Cellular uptake and intracellular localization (confocal microscopy) (MCF-7 cells [1]; 20 μM peptide): little cellular uptake

Substance: octaarginine
Cellular uptake and intracellular localization [4]: trapped in endosomes to a significant extent and exhibit reduced cellular uptake
